Assay results taken from US9458132B2, “Therapeutic compounds and compositions and their use as PKM2 modulators” (AGIOS PHARMACEUTICALS, INC., priority 2012, dated 2016).

What was measured:
Format in all cases: biochemical
[1] = target: PKR R532W (Homo sapiens, UniProt P30613, R532W); assay: PKR mutant assay, PKR R532W AC50; details: mutant PKR R532W enzyme
Experimental: (§1) • PKR or PKR mutant enzyme solution was diluted in assay buffer. • 2 μL of test compound was added into wells first, and then 180 μL reaction mix was added. • Reactions mixture with test compound was assembled except for ADP, and plates were stored for 60 minutes at room temperature. • 20 uL ADP was added to start reaction at room temperature and reaction progress was measured as changes in absorbance at 340 nm wavelength at room temperature.
(§2) Test Compound Preparation: • Test compound stock was made at 100x concentration in 100% DMSO (10 mM) • 1 to 3 dilutions were made for 11 points (i.e. 50 μl of first concentration added to 100 μl 100% DMSO to yield 3.33 mM, 50 μl of this added to 100 μl DMSO to yield 1.11 mM, and so forth) • 1 to 100 dilution into assay (2 μl in 200 μl) yielded starting concentration of 100 μM, decreasing 3 fold for 11 points • Assay Buffer: 100 mM KCl, 50 mM Tris 7.5, 5 mM MgCl2, 1 mM DTT, 0.03% BSA • Reaction Mixture: PKR mutant enzyme: 80-400 ng/well; ADP: 0.22-1.65 mM; PEP: 0.1-0.5 mM; NADH:180 uM; LDH: 0.5 units (Sigma#59023); DTT: 1 mM; BSA: 0.03%.
(§3) A compound described herein was diluted with DMSO and tested at 1 μM concentration. The enzyme was diluted in 1× Buffer: (100 mM KCl, 50 mM Tris 7.5, 5 mM MgCl2, 1 mM DTT, 0.03% BSA). 2 μL of compound solution was first added into wells, and then 180 μL of enzyme solution was added. Assays were assembled except for ADP, and plates were stored for 60 minutes at RT. 20 μL ADP was added to start the assay and assay output was evaluated using OD340 at SpectraMax. The assay was run at room temperature. • Final concentration: PKR R532W (100 ng/well), Tris pH 7.5 (50 mM), KCl (100 mM), MgCl2 (5 mM), ADP (0.36 mM), PEP (0.1 mM), NADH (180 μM), LDH (0.5 units, Sigma 59023), DTT (1 mM) and BSA (0.03%).

[2] = target: PKR R510Q (Homo sapiens, UniProt P30613, R510Q); assay: PKR mutant assay, PKR R510Q AC50; details: mutant PKR R510Q enzyme
Chain of PKR R510Q (P30613 whole entry R510Q): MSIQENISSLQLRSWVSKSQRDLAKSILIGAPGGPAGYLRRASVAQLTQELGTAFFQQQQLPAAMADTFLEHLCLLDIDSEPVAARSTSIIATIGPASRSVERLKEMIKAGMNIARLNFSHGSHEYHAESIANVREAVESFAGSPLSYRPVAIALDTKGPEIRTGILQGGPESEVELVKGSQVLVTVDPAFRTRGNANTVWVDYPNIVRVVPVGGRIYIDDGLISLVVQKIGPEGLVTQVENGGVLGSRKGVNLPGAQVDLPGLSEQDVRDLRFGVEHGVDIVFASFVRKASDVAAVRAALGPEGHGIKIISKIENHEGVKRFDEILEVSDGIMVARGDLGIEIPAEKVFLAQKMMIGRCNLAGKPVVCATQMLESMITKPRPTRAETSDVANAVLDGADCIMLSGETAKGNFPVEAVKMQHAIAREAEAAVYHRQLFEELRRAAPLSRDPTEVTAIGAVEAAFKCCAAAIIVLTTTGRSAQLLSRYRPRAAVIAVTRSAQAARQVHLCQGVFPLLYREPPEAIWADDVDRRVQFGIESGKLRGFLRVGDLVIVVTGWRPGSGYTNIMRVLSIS
Experimental: as §1
as §2, with “0.03%. […]” for “0.03%.”

[3] = target: PKR WT (Homo sapiens, UniProt P30613); assay: PKR WT enzymatic assay AC50; details: wild type PKR
Chain of PKR WT (P30613 whole entry): as the sequence (P30613 whole entry R510Q) above, with Q510R counted along it
Experimental: as §1, §2
as §3, with “wt” for “R532W”, “(0.48” for “(0.36”, “(0.15” for “(0.1”

Chain of PKR R532W (P30613 whole entry R532W): as the sequence (P30613 whole entry R510Q) above, with Q510R, R532W counted along it

| SMILES | AC50 [1] [µM] | AC50 [2] [µM] | AC50 [3] [µM] |
| --- | --- | --- | --- |
| O=C(c1ccc(NS(=O)(=O)c2ccccc2C(F)(F)F)cc1)N1CC(O)(Cc2ccccc2)C1 [Compound 51, N-(4-(3-benzyl-3-hydroxyazetidine-1-carbonyl)phenyl)-2-(trifluoromethyl)benzenesulfonamide] | > 10 | > 10 | > 10 |
| COc1cccnc1C1(O)CN(C(=O)c2ccc(NS(=O)(=O)c3cccc4cccnc34)cc2)C1 [Compound 21, N-(4-(3-hydroxy-3-(3-methoxypyridin-2-yl)azetidine-1-carbonyl)phenyl)quinoline-8-sulfonamide] | – | 1.01 to 10 | 1.01 to 10 |
| O=C(c1ccc(NS(=O)(=O)c2ccccc2Cl)cc1)N1CC(O)(Cc2ccccc2)C1 [Compound 49, N-(4-(3-benzyl-3-hydroxyazetidine-1-carbonyl)phenyl)-2-chlorobenzenesulfonamide] | 1.01 to 10 | > 10 | 1.01 to 10 |
| O=C(c1ccc(NS(=O)(=O)c2cccc3cccnc23)cc1)N1CC(O)(c2ncccc2Cl)C1 [Compound 23, N-(4-(3-(3-chloropyridin-2-yl)-3-hydroxyazetidine-1-carbonyl)phenyl)quinoline-8-sulfonamide] | – | > 10 | 1.01 to 10 |
| O=C(c1ccc(NS(=O)(=O)c2cccc3cccnc23)cc1)N1CC(O)(c2ncccc2C(F)(F)F)C1 [Compound 24, N-(4-(3-hydroxy-3-(3-(trifluoromethyl)pyridin-2-yl)azetidine-1-carbonyl)phenyl)quinoline-8-sulfonamide] | – | 1.01 to 10 | 0.101 to 1 |
| O=C(c1ccc(NS(=O)(=O)c2ccc(OC(F)(F)F)cc2)cc1)N1CC(O)(Cc2ccccc2)C1 [Compound 65] | > 10 | – | > 10 |
| O=C(c1ccc(NS(=O)(=O)c2cccc3cccnc23)cc1)N1CC(O)(c2ncccc2OC(F)F)C1 [Compound 25, N-(4-(3-(3-(difluoromethoxy)pyridin-2-yl)-3-hydroxyazetidine-1-carbonyl)phenyl)quinoline-8-sulfonamide] | – | 1.01 to 10 | 0.101 to 1 |
| O=C(c1ccc(NS(=O)(=O)c2ccc(C(F)(F)F)cc2)cc1)N1CC(O)(Cc2ccccc2)C1 [Compound 50, N-(4-(3-benzyl-3-hydroxyazetidine-1-carbonyl)phenyl)-4-(trifluoromethyl)benzenesulfonamide] | > 10 | – | – |
| O=C(c1ccc(NS(=O)(=O)c2cccc3cnccc23)cc1)N1CC(O)(Cc2ccccc2)C1 [Compound 48, N-(4-(3-benzyl-3-hydroxyazetidine-1-carbonyl)phenyl)isoquinoline-5-sulfonamide] | > 10 | – | > 10 |
| CN1C(=O)Cc2cc(S(=O)(=O)Nc3ccc(C(=O)N4CC(O)(Cc5ccccc5)C4)cc3)ccc21 [Compound 66] | > 10 | – | > 10 |

Second part, the molecule after the results:

| AC50 [1] [µM] | AC50 [2] [µM] | AC50 [3] [µM] | SMILES |
| --- | --- | --- | --- |
| 0.101 to 1 | > 10 | 0.101 to 1 | O=C(c1ccc(NS(=O)(=O)c2cccc3cccnc23)cc1)N1CC(O)(CC2CC2)C1 [Compound 37, N-(4-(3-(cyclopropylmethyl)-3-hydroxyazetidine-1-carbonyl)phenyl)quinoline-8-sulfonamide] |
| > 10 | > 10 | > 10 | CC(O)C1(O)CN(C(=O)c2ccc(NS(=O)(=O)c3cccc4cccnc34)cc2)C1 (stereo not shown) [Compound 39, N-(4-(3-hydroxy-3-(1-hydroxyethyl)azetidine-1-carbonyl)phenyl)quinoline-8-sulfonamide] |
| 0.101 to 1 | 1.01 to 10 | 0.101 to 1 | CC(C)CC1(O)CN(C(=O)c2ccc(NS(=O)(=O)c3cccc4cccnc34)cc2)C1 [Compound 35, N-(4-(3-hydroxy-3-isobutylazetidine-1-carbonyl)phenyl)quinoline-8-sulfonamide] |
| – | > 10 | – | Cc1cccnc1C1(O)CN(C(=O)c2ccc(NS(=O)(=O)c3cccc4cccnc34)cc2)C1 [Compound 59] |
